# Patent publication US3965109A, “Certain aryl amino pyridines” (priority 1971, dated 1976)
# Experiments:
# [1] = test system: Aedes aegypti (mosquito adults); test: Pest toxicity test; assay type: in vivo; conditions: 0.01% by weight; plywood; 1 day
# Lettuce = test: Herbicidal test, pre- and post-emergence; assay type: in vivo; conditions: 10 kg/ha; scale 0 to 3 (complete kill)
# Sugar beet = test: Further herbicidal test, various rates; assay type: in vivo; conditions: 5 kg/hectare; scale 0 to 5 (complete kill)
# [2] = test system: Aedes aegypti (mosquito larvae); test: Pest toxicity test; assay type: in vivo; conditions: 0.01% by weight; water; 1 day
# [3] = test system: Plasmopara viticola (vine); test: Fungicidal test against foliar disease C (foliage spray plus soil drench); assay type: in vivo; conditions: 100 ppm spray and drench; 10 days
# Tomato = test: Herbicidal test, pre- and post-emergence; assay type: in vivo; conditions: 10 kg/ha; scale 0 to 3 (complete kill)
# Aphis fabae = test: Pest toxicity test; assay type: in vivo; conditions: 0.1% by weight; broad bean; 2 days
# [4] = test system: Pieris brassicae (cabbage white caterpillars); test: Pest toxicity test; assay type: in vivo; conditions: 0.1% by weight, 2 days
# Megoura viceae = test: Pest toxicity test; assay type: in vivo; conditions: 0.1% by weight; broad bean; 2 days
# [5] = test system: Musca domestica (houseflies); test: Pest toxicity test, contact test; assay type: in vivo; conditions: 0.1% by weight; milk/sugar; 2 days; flies sprayed directly
# [6] = test system: Plutella maculipennis (diamond back moth larvae); test: Pest toxicity test; assay type: in vivo; conditions: in vivo
# Pea = test: Further herbicidal test, various rates; assay type: in vivo; conditions: 5 kg/hectare; scale 0 to 5 (complete kill)
# [7] = test system: Agriolimax reticulatus (slugs); test: Molluscicidal activity test; assay type: in vivo, Agriolimax reticulatus (Mull); conditions: pellet with 4% by weight; 6 days; 10°C
# Procedure: A weighed sample of the compound under test was dissolved in 0.5 c.c. of an ethanol and acetone mixture 50:50 v/v). The solution was diluted with 0.5 cc water and poured onto a calf feeding pellet in a glass Petri dish. The pellet was then air dried for 24 hours. The weight of compound used was chosen so that the dried pellet contained 4% by weight of the active ingredient. Two replicates each consisting of a plastic Petri dish containing a pellet, 2 slugs, and a moistened filter paper to maintain a high relative humidity were used in each test. The dishes were left in a cold room (10°C.) After 6 days the kill was assessed.
# The slugs used were Agriolimax reticulatus (Mull), and they had been starved for 24 hours before the commencement of the tests.
# Wheat = test: Herbicidal test, pre- and post-emergence; assay type: in vivo; conditions: 10 kg/ha; scale 0 to 3 (complete kill)
# [8] = test system: Tetranychus telarius (red spider mites, adults); test: Pest toxicity test; assay type: in vivo; conditions: 0.1% by weight; French bean; 3 days
# [9] = test system: Phaedon cochleariae (mustard beetles); test: Pest toxicity test; assay type: in vivo; conditions: in vivo
# [10] = test system: Tetranychus telarius (red spider mites, eggs); test: Pest toxicity test; assay type: in vivo; conditions: 0.1% by weight; French bean; 3 days
# Onion = test: Further herbicidal test, various rates; assay type: in vivo; conditions: 5 kg/hectare; scale 0 to 5 (complete kill)
# Kale = test: Further herbicidal test, various rates; assay type: in vivo; conditions: 5 kg/hectare; scale 0 to 5 (complete kill)
# Carrot = test: Further herbicidal test, various rates; assay type: in vivo; conditions: 5 kg/hectare; scale 0 to 5 (complete kill)
# Oat = test: Further herbicidal test, various rates; assay type: in vivo; conditions: 5 kg/hectare; scale 0 to 5 (complete kill)
# Rice = test: Further herbicidal test, various rates; assay type: in vivo; conditions: 5 kg/hectare; scale 0 to 5 (complete kill)
# Maize = test: Herbicidal test, pre- and post-emergence; assay type: in vivo; conditions: 10 kg/ha; scale 0 to 3 (complete kill)
# [11] = test system: Puccinia recondita (wheat); test: Fungicidal test against foliar disease A (foliage spray plus soil drench); assay type: in vivo; conditions: 100 ppm spray and drench; 10 days
# Uncinula necator (vine) = test: Fungicidal test against foliar disease D (foliage spray plus soil drench); assay type: in vivo; conditions: 100 ppm spray and drench; 10 days
# Barley = test: Further herbicidal test, various rates; assay type: in vivo; conditions: 5 kg/hectare; scale 0 to 5 (complete kill)
# [12] = test system: Piricularia oryzae (rice); assay type: in vivo; conditions: 100 ppm spray and drench; 7 days
SMILES,Mortality grading (kill) [1],"Damage to plants, post-emergence (Lettuce)","Damage to plants, pre-emergence (Lettuce)","Damage to plants, pre-emergence (Sugar beet)",Mortality grading (kill) [2],"Damage to plants, post-emergence (Tomato)","Damage to plants, pre-emergence (Tomato)",Mortality grading (kill) (Aphis fabae),Mortality grading (kill) [4],Mortality grading (kill) (Megoura viceae),"Mortality grading (kill), contact test [5]",Mortality grading (kill) [6],"Damage to plants, pre-emergence (Pea)",% Kill of slugs [7],"Damage to plants, post-emergence (Wheat)","Damage to plants, pre-emergence (Wheat)",Mortality grading (kill) [8],Mortality grading (kill) [9],Mortality grading (kill) [10],"Damage to plants, pre-emergence (Onion)",further results
"O=[N+]([O-])c1cc(Cl)c(Nc2c(Cl)c(F)nc(F)c2Cl)c(Cl)c1 [Compound 27, 3,5-Dichloro-2,6-difluoro-4(2,6-dichloro-4-nitroanilino)pyridine]",2 (2 represents 60 - 90% kill),3,3,4,3 (3 represents over 90% kill),1,3,3 (3 represents over 90% kill),0 (O represents less than 30% kill),3 (3 represents over 90% kill),3 (3 represents over 90% kill),0 (key: O represents less than 30% kill; 1 represents 30 - 49% kill; 2 represents 60 - 90% kill; 3 represents over 90% kill; C indicates a chemosterilant effect.; A indicates an antifeeding effect.),3,100%,0,0,3 (3 represents over 90% kill),0 (key: O represents less than 30% kill; 1 represents 30 - 49% kill; 2 represents 60 - 90% kill; 3 represents over 90% kill; C indicates a chemosterilant effect.; A indicates an antifeeding effect.),3 (3 represents over 90% kill),0,"Amount of disease grading, disease C (Table 4) [3]: 3 (0 to 5); Damage to plants, pre-emergence (Kale): 4; Damage to plants, pre-emergence (Carrot): 4; Damage to plants, pre-emergence (Oat): 0; Damage to plants, pre-emergence (Rice): 0; Damage to plants, post-emergence (Maize): 0; Damage to plants, pre-emergence (Maize): 0; Amount of disease grading, disease A (Table 4) [11]: 0 (61 to 100); Amount of disease grading, disease D (Table 4) (Uncinula necator (vine)): 3 (0 to 5); Damage to plants, pre-emergence (Barley): 0"
"N#Cc1c(F)c(F)c(Nc2c(Cl)c(Cl)nc(Cl)c2Cl)c(F)c1F [Compound 42, 4(4-Cyano-2,3,5,6-tetrafluoroanilino)tetrachloropyridine]",0 (O represents less than 30% kill),2,3,5,3 (3 represents over 90% kill),3,3,3 (3 represents over 90% kill),3 (3 represents over 90% kill),3 (3 represents over 90% kill),3 (3 represents over 90% kill),0 (key: O represents less than 30% kill; 1 represents 30 - 49% kill; 2 represents 60 - 90% kill; 3 represents over 90% kill; C indicates a chemosterilant effect.; A indicates an antifeeding effect.),2,50%,0,3,3 (3 represents over 90% kill),0 (key: O represents less than 30% kill; 1 represents 30 - 49% kill; 2 represents 60 - 90% kill; 3 represents over 90% kill; C indicates a chemosterilant effect.; A indicates an antifeeding effect.),3 (3 represents over 90% kill),5,"Damage to plants, post-emergence (Sugar beet): 5; Damage to plants, post-emergence (Pea): 1; Amount of disease grading, disease E (Table 4) [12]: 0 (61 to 100); Damage to plants, post-emergence (Kale): 5; Damage to plants, pre-emergence (Kale): 4; Damage to plants, post-emergence (Carrot): 5; Damage to plants, pre-emergence (Carrot): 5; Damage to plants, post-emergence (Oat): 4; Damage to plants, pre-emergence (Oat): 4; Damage to plants, post-emergence (Rice): 0; Damage to plants, pre-emergence (Rice): 3; Damage to plants, post-emergence (Maize): 0; Damage to plants, pre-emergence (Maize): 3; Amount of disease grading, disease A (Table 4) [11]: 3 (0 to 5); Damage to plants, post-emergence (Barley): 1; Damage to plants, pre-emergence (Barley): 3"
"Fc1nc(F)c(Cl)c(Nc2c(Cl)c(F)c(Cl)c(F)c2Cl)c1Cl [Compound 43, 3,5-Dichloro-2,6-difluoro-4(3,5-difluoro-2,4,6-trichloroanilino) pyridine]",0 (O represents less than 30% kill),3,3,0,3 (3 represents over 90% kill),3,1,3 (3 represents over 90% kill),3 (3 represents over 90% kill),3 (3 represents over 90% kill),3 (3 represents over 90% kill),2 (key: O represents less than 30% kill; 1 represents 30 - 49% kill; 2 represents 60 - 90% kill; 3 represents over 90% kill; C indicates a chemosterilant effect.; A indicates an antifeeding effect.),0,100%,0,1,3 (3 represents over 90% kill),0 (key: O represents less than 30% kill; 1 represents 30 - 49% kill; 2 represents 60 - 90% kill; 3 represents over 90% kill; C indicates a chemosterilant effect.; A indicates an antifeeding effect.),3 (3 represents over 90% kill),0,"Damage to plants, post-emergence (Sugar beet): 5; Damage to plants, post-emergence (Pea): 5; Damage to plants, post-emergence (Kale): 5; Damage to plants, pre-emergence (Kale): 1; Damage to plants, post-emergence (Carrot): 5; Damage to plants, pre-emergence (Carrot): 0; Damage to plants, post-emergence (Oat): 4; Damage to plants, pre-emergence (Oat): 0; Damage to plants, post-emergence (Rice): 1; Damage to plants, pre-emergence (Rice): 0; Damage to plants, post-emergence (Maize): 2; Damage to plants, pre-emergence (Maize): 0; Amount of disease grading, disease D (Table 4) (Uncinula necator (vine)): 3 (0 to 5); Damage to plants, post-emergence (Barley): 3; Damage to plants, pre-emergence (Barley): 1"
